Data from the supplement of paper PMC11781733.

Tests used:
Details in all cases: exposure time: 15 min to 3 h acute
Dugesia japonica [1] = test: crawl-out incidence (% planarians); higher = higher incidence or increase relative to vehicle control
Dugesia japonica [2] = test: pharynx extrusion incidence (% planarians (vehicle-normalised)); higher = higher incidence or increase relative to vehicle control
How it was run: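 Fasted, intact Dugesia japonica were scored manually and blind for pharynx extrusion as a body-shape category, with the incidence normalised to in-plate vehicle controls. Testing took place 15 min to 3 h after exposure, one worm per well in 200 μL of 0.5% DMSO or water vehicle, with eight worms per concentration per plate in triplicate (n = 24). Worms that crawled out were excluded, and negative values were set to 0.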

Dugesia japonica [3] = test: total locomotor bursts minus vehicle (bursts difference vs vehicle); higher = higher incidence or increase relative to vehicle control
How it was run: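 Fasted Dugesia japonica planarians, one per well of a sealed 48-well plate in 200 μL solution, were tested 15 min–3 h after exposure to half- or quarter-log concentration series. The vehicle was 0.5% DMSO or water. Total locomotor bursts, an unstimulated behaviour, came from image-based object tracking, with technical triplicates totalling n = 24. Each planarian's value had the plate vehicle-control median subtracted, without ×100 scaling. The value is the median normalised response, and crawled-out worms were excluded.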

Dugesia japonica [4] = test: loss of phototaxis incidence (% planarians (vehicle-normalised)); higher = higher incidence or increase relative to vehicle control
How it was run: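 For each concentration, eight intact, fasted Dugesia japonica per plate were placed singly in wells of a 48-well plate in 200 μL and run in technical triplicate (n = 24). Testing took place 15 min to 3 h after exposure in 0.5% DMSO or water vehicle. Loss of phototaxis was recorded as present or absent by automated object tracking and expressed as an incidence rate normalised to in-plate vehicle controls. For this rate, ×100 was applied, negatives were set to 0, and worms that crawled out were excluded.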

Dugesia japonica [5] = test: speed in dark vs vehicle (% change vs vehicle); higher = higher incidence or increase relative to vehicle control
How it was run: (§1)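 Crawling speed in the dark or during blue-light periods was measured by automated tracking of intact, fasted Dugesia japonica, one per well of a 48-well plate in 200 μL. Worms were tested 15 min to 3 h after exposure in 0.5% DMSO or water vehicle. Eight worms per concentration per plate were run in technical triplicate (n = 24). Each worm was normalised to the plate's vehicle median, and the value is the median percent change; worms that crawled out were excluded.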

Dugesia japonica [6] = test: loss of heat-induced scrunching incidence (% planarians (vehicle-normalised)); higher = higher incidence or increase relative to vehicle control
How it was run: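 Planarians of the species D. japonica, fasted for 5–7 days, were placed singly in wells of sealed 48-well plates in 200 μL and exposed to at least 5 concentrations, 24 worms per concentration in technical triplicates. Scrunching in response to a noxious heat stimulus was tested within 15 minutes–3 hours, and any worm that crawled out was excluded. The reported figure is the incidence of non-scrunching worms, normalised to vehicle controls on the same plate. This incidence is given ×100, with negatives set to 0.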

Dugesia japonica [7] = test: speed second 30 s blue light vs vehicle (% change vs vehicle); higher = higher incidence or increase relative to vehicle control
How it was run: as §1

Dugesia japonica [8] = test: any abnormal body shape incidence (% planarians (vehicle-normalised)); higher = higher incidence or increase relative to vehicle control
How it was run: (§2)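 Body shape incidence, for a given shape or for any abnormal shape, is reported ×100 and normalised to vehicle controls on the same plate, with negative values set to 0. D. japonica planarians fasted for 5–7 days were placed one per well in 200 μL in sealed 48-well plates and exposed to at least 5 concentrations. Within 15 minutes–3 hours of exposure, a researcher scored contraction, C-shape, corkscrew and hyperkinesis manually and blind, excluding worms that crawled out.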

Dugesia japonica [9] = test: corkscrew incidence (% planarians (vehicle-normalised)); higher = higher incidence or increase relative to vehicle control
How it was run: as §2

Dugesia japonica [10] = test: C-shape incidence (% planarians (vehicle-normalised)); higher = higher incidence or increase relative to vehicle control
How it was run: as §2

Dugesia japonica [11] = test: hyperkinesis incidence (% planarians (vehicle-normalised)); higher = higher incidence or increase relative to vehicle control
How it was run: as §2

Dugesia japonica [12] = test: resting fraction in blue light vs vehicle (difference in fraction x100 vs vehicle); higher = higher incidence or increase relative to vehicle control
How it was run: (§3)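 In technical triplicate, eight intact, fasted Dugesia japonica per concentration per plate were tracked automatically to score the resting fraction in the dark or under blue light. Each worm had its own well of a 48-well plate containing 200 μL and was tested 15 min to 3 h after exposure in 0.5% DMSO or water vehicle. Reported values are medians of each worm's difference from the plate's vehicle median multiplied by 100, leaving out worms that crawled out.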

Dugesia japonica [13] = test: resting fraction in dark vs vehicle (difference in fraction x100 vs vehicle); higher = higher incidence or increase relative to vehicle control
How it was run: as §3

Dugesia japonica [14] = test: stickiness incidence (% planarians (vehicle-normalised)); higher = higher incidence or increase relative to vehicle control
How it was run: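 In the Stickiness assay, fasted Dugesia japonica planarians were each placed in one well of a sealed 48-well plate containing 200 μL of solution, with 0.5% DMSO or water as vehicle. Testing took place 15 min–3 h after exposure to half- or quarter-log concentration series. Stickiness was recorded as a binary endpoint, and its incidence was expressed relative to in-plate vehicle incidence after pooling technical triplicates and removing worms that crawled out. Negative values were set to 0 and all values were multiplied by 100.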

Dugesia japonica [15] = test: anxiety (time in outer well region) vs vehicle (% change vs vehicle); higher = higher incidence or increase relative to vehicle control
How it was run: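 Dugesia japonica planarians fasted for 5–7 days were placed one per well in 200 μL in sealed 48-well plates and exposed to at least 5 concentrations, with n = 24 per concentration in technical triplicates, then screened within 15 minutes–3 hours. Object tracking in MATLAB or Python measured the time each worm spent in the outer portion of the well, and worms that crawled out were excluded. Each response was divided by, or reduced by, the plate vehicle median and multiplied by 100. The reported value is the median of these normalized responses.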

Dugesia japonica [16] = test: contracted body shape incidence (% planarians (vehicle-normalised)); higher = higher incidence or increase relative to vehicle control
How it was run: as §2

Dugesia japonica [17] = test: speed first 30 s blue light vs vehicle (% change vs vehicle); higher = higher incidence or increase relative to vehicle control
How it was run: as §1

Dugesia japonica [18] = test: noxious heat displacement strength vs vehicle (% change vs vehicle); higher = higher incidence or increase relative to vehicle control
How it was run: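 Each intact, fasted Dugesia japonica was tested alone in a well of a 48-well plate in 200 μL, 15 min to 3 h after exposure in 0.5% DMSO or water vehicle. Eight worms per concentration per plate were used in technical triplicate (n = 24). Displacement strength under noxious heat came from the scrunching assay with automated object tracking and is given as the median percent change against the plate's vehicle median, excluding worms that crawled out.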

SMILES	crawl-out incidence (Dugesia japonica [1])	pharynx extrusion incidence (Dugesia japonica [2])	total locomotor bursts minus vehicle (Dugesia japonica [3])	loss of phototaxis incidence (Dugesia japonica [4])	speed in dark (Dugesia japonica [5])	loss of heat-induced scrunching incidence (Dugesia japonica [6])	speed second 30 s blue light (Dugesia japonica [7])	any abnormal body shape incidence (Dugesia japonica [8])	corkscrew incidence (Dugesia japonica [9])	C-shape incidence (Dugesia japonica [10])	hyperkinesis incidence (Dugesia japonica [11])	resting fraction in blue light (Dugesia japonica [12])	resting fraction in dark (Dugesia japonica [13])	stickiness incidence (Dugesia japonica [14])	anxiety (Dugesia japonica [15])	contracted body shape incidence (Dugesia japonica [16])	speed first 30 s blue light (Dugesia japonica [17])	noxious heat displacement strength (Dugesia japonica [18])
O=C(O)C(=O)O [oxalic acid] (1000 µM)	0	0	4	54.2	-53.2	83.3	-90.4	62.5	0	41.7	0	63.9	60.5	≤ 0	-19.2	50	-88.1	-57
CN1CCN(CCCN2c3ccccc3Sc3ccc(Cl)cc32)CC1 [prochloroperazine] (3.16 µM)	4.17	0	14.8	17.4	-37.4	45.8	-55.6	16.7	0	0	12.5	-3.15	15.2	4.17	19	4.17	-37.9	-46.2
CN1CCN(CCCN2c3ccccc3Sc3ccc(Cl)cc32)CC1 [prochloroperazine] (10 µM)	25	0	12.5	50	-74.9	66.7	-85.8	37.5	0	12.5	25	52.9	38.3	4.17	21.9	4.17	-81.4	-55.5
CN1CCN(CCCN2c3ccccc3Sc3ccc(Cl)cc32)CC1 [prochloroperazine] (31.6 µM)	20.8	0	-3	63.2	-65.5	65.2	-83.6	73.9	4.35	34.8	26.1	75.3	60.9	≤ 0	24	21.7	-89.8	-47.9
CN1CCN(CCCN2c3ccccc3Sc3ccc(Cl)cc32)CC1 [prochloroperazine] (100 µM)	29.2	0	0.25	76.5	-72.3	75	-92.9	70	5	35	0	82.2	77	≤ 0	-100	75	-91.1	-41.6
CNCC[C@H](Oc1cccc2ccccc12)c1cccs1 [s-duloxetine] (3.16 µM)	0	0	-2.5	≤ 0	70.8	25	68.4	0	0	0	0	-12.5	-19	16.7	12	0	167	-40.2
CNCC[C@H](Oc1cccc2ccccc12)c1cccs1 [s-duloxetine] (10 µM)	0	0	-13	50	124	8.33	34.6	75	0	0	75	-12.1	-32.6	≤ 0	-1.76	0	142	-38
CNCC[C@H](Oc1cccc2ccccc12)c1cccs1 [s-duloxetine] (31.6 µM)	4.17	26.1	61	47.8	-18.7	65.2	-62.7	73.9	0	34.8	39.1	7.14	-4.51	≤ 0	-51.2	4.35	-45.9	-61.5
CNCC[C@H](Oc1cccc2ccccc12)c1cccs1 [s-duloxetine] (100 µM)	4.17	65.2	-4.5	56.5	-50.6	73.9	-87.5	82.6	0	13	0	72.3	55.5	≤ 0	-57.1	34.8	-84	-66.8
